Records with an inconclusive call do not appear.
Test system: T. cruzi beta-gal in NIH3T3, GalScreen luminescence, 90 h
Experiment: Trypanosoma cruzi growth suppression in host cells – NIH3T3 host cells, beta-gal luminescence, confirmation (AID 2044)

Question: With `C#CCOCCOCCOCCNc1nc(N2CCN(C(=O)CCCCCCCCCCNC(=O)Cn3cc(C[C@@H](C)O)nn3)CC2)nc(N2CCN(C(=O)CCCCCCCCCCNC(=O)[C@H](CCCN=C(N)N)n3cc(C[C@@H](C)CC)nn3)CC2)n1` as the compound, how does the EC50 read?
Answer: The EC50 was 967 nM.

From PubChem BioAssay AID2044 (Broad Institute, 2009)
